{
  "source": "ChEMBL document CHEMBL5325450",
  "about": "“Bisabolane-Type Sesquiterpenoids with a Tetrahydrofuran or Tetrahydropyran Ring from Vernonia solanifolia” (J Nat Prod, 2023)",
  "key": {"[1]": {"target": "T1, Nuclear factor NF-kappa-B complex (Homo sapiens) (UniProt Q00653+P19838+Q04206)", "T1 sequence (P19838 whole entry, looked up)": "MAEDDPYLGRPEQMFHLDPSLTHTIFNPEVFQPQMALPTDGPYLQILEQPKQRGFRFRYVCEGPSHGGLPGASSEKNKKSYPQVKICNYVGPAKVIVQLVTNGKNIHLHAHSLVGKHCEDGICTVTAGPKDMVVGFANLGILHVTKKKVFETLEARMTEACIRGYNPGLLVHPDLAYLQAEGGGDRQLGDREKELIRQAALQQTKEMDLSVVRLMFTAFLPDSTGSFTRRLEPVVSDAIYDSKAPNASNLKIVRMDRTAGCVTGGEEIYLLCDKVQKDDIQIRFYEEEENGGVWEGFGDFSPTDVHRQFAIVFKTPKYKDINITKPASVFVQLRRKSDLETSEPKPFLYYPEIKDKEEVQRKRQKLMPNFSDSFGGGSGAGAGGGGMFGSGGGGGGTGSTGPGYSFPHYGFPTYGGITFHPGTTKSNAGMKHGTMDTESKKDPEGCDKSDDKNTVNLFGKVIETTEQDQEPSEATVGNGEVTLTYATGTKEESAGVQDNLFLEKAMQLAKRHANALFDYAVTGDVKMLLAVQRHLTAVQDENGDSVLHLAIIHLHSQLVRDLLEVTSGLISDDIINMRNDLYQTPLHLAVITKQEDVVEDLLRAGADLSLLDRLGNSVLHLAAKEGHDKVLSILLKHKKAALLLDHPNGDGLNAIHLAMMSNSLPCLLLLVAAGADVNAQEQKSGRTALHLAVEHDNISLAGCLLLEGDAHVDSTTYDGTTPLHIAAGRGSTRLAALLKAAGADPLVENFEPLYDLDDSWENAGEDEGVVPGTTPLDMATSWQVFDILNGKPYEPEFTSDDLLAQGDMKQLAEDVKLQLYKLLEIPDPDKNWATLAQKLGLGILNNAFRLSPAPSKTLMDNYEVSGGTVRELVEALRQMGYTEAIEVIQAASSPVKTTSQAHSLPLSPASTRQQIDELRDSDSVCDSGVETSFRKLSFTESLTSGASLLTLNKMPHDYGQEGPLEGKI", "T1 sequence (Q00653 whole entry, looked up)": "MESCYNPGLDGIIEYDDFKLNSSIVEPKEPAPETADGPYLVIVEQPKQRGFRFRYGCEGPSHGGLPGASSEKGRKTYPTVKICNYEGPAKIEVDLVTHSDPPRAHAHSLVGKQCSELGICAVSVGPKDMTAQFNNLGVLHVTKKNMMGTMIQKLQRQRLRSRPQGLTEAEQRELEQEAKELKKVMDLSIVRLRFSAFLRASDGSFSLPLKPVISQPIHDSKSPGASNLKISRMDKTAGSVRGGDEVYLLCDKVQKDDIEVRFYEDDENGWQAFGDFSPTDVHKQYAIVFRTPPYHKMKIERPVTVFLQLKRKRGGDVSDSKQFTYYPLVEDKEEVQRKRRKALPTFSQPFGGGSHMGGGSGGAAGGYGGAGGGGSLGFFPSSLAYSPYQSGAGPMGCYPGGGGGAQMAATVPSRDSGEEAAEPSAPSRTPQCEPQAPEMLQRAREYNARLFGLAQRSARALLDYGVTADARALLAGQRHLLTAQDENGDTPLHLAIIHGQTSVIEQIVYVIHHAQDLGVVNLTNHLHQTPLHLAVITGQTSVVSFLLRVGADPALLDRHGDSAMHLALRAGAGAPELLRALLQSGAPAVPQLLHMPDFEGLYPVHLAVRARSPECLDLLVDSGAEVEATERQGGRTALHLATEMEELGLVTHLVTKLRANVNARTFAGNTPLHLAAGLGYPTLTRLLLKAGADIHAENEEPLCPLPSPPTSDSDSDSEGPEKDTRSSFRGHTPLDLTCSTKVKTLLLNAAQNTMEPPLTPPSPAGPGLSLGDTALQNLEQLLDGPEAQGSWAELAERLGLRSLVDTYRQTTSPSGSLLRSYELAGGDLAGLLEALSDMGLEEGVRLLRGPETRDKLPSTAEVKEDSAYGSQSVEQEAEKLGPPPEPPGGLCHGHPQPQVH", "T1 sequence (Q04206 whole entry, looked up)": "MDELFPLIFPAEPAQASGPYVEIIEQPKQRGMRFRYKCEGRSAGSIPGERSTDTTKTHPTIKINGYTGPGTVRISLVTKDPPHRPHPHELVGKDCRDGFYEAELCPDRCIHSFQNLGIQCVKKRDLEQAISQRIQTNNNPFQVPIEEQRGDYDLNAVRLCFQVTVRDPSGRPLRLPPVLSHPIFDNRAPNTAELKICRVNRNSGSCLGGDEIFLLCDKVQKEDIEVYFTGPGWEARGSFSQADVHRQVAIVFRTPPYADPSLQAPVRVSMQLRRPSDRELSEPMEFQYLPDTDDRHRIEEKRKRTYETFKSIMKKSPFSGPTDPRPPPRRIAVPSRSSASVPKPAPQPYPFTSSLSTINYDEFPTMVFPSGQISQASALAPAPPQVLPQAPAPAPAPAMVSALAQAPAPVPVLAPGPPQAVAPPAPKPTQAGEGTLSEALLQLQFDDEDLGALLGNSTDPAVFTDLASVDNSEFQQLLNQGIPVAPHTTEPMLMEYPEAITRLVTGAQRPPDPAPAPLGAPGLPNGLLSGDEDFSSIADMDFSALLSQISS", "assay": "Inhibition of NFkappaB signaling pathway in LPS-induced human THP-1 cells assessed as reduction in IKKalpha/beta phosphorylation by Western blot analysis", "assay_type": "cell-based"}, "THP-1": {"test_system": "THP-1", "assay": "Anti-inflammatory activity against LPS-induced human THP-1 cells assessed as reduction in iNOS protein expression by Western blot analysis", "assay_type": "functional, cell-based", "conditions": "dose 20-80 µM"}, "RAW264.7 [2]": {"test_system": "RAW264.7", "assay": "Anti-inflammatory activity against mouse RAW264.7 cells assessed as inhibition of LPS-induced NO production at 80 uM pre-incubated for 1 hr followed by compound addition and measured after 18 hrs by Griess reagent based analysis", "assay_type": "functional, cell-based", "conditions": "time 19.0 hrs"}, "RAW264.7 [3]": {"test_system": "RAW264.7", "assay": "Cytotoxicity against mouse RAW264.7 cells assessed as reduction in cell viability upto 80 uM measured after 24 hrs by MTT assay", "assay_type": "toxicity, cell-based", "conditions": "raw264.7, 24 h"}, "[4]": {"target": "T1, Nuclear factor NF-kappa-B complex (Homo sapiens)", "assay": "Inhibition of NFkappaB signaling pathway in LPS-induced human THP-1 cells assessed as reduction in p65 phosphorylation by Western blot analysis", "assay_type": "cell-based"}, "[5]": {"target": "T1, Nuclear factor NF-kappa-B complex (Homo sapiens)", "assay": "Inhibition of NFkappaB signaling pathway in LPS-induced human THP-1 cells assessed as reduction in IkappaBalpha phosphorylation by Western blot analysis", "assay_type": "cell-based"}, "RAW264.7 [6]": {"test_system": "RAW264.7", "assay": "Anti-inflammatory activity against mouse RAW264.7 cells assessed as reduction in LPS-induced NO production pre-incubated for 1 hr followed by compound addition and measured after 18 hrs by Griess reagent based analysis", "assay_type": "functional, cell-based", "conditions": "dose 5-80 µM, time 19.0 hrs"}},
  "note": "Activity calls are given as the source filed them. The calls are words filed in the database; no cut-off is given here.",
  "data": [
    {"smiles": "C[C@](O)(CO)[C@@H]1CC[C@@](C)([C@@H]2CC=C(C(=O)O)CC2)O1", "values": [
      {"measurement": "inhibition", "setting": "[1]", "result": "Active"},
      {"measurement": "Activity", "setting": "THP-1", "result": "Dose-Dependent Effect"},
      {"measurement": "Activity", "setting": "RAW264.7 [2]", "result": "Active"},
      {"measurement": "Activity", "setting": "RAW264.7 [3]", "result": "Non-Toxic"},
      {"measurement": "inhibition", "setting": "[4]", "result": "Active"},
      {"measurement": "inhibition", "setting": "[5]", "result": "Active"},
      {"measurement": "Activity", "setting": "RAW264.7 [6]", "result": "Dose-Dependent Effect"}
    ]}
  ]
}
